Tests used:
human fibroblasts = experiment: Yamanaka factor-mediated reprogramming of human fibroblasts, iPS colony count; format: cell-based; conditions: human fibroblast reprogramming culture without OCT4-GFP reporter, vs vehicle control
From the text: (§1) A-C) Yamanaka factor-mediated reprogramming of NSO4G neural stem cells. D) Yamanaka factor-mediated reprogramming of human fibroblasts. A) Schematic representation of the experimental design for data in panels B and C. B) Flow cytometry plots (left) and quantification data (right) for the number of GFP-positive cells at the end of reprogramming, in the presence of PADI4 or control shRNAs. C) Flow cytometry plots (left) and quantification data (right) for the number of GFP-positive cells at the end of reprogramming, in the presence of CI-amidine or vehicle control. D) Quantification of iPS colonies, as a measure of the degree of reprogramming, after Yamanaka factor-mediated reprogramming of human fibroblasts, in the presence of two independent PADI4 inhibitors (CI-amidine or GSK484) or vehicle controls. The inhibitors were administered throughout the course of reprogramming.
FIG. 10: Inhibition of extracellular chromatin component-sensing pathways inhibits reprogramming. A) Schematic representation of the extra-nuclear DNA sensing pathway cGAS/STING (left panel). Flow cytometry-based quantification of GFP-positive cells at the end of NSC reprogramming (day 15), in the presence of STING inhibitor H-151, vehicle control (DMSO) or no treatment (right panel). B) Schematic representation of the signalling pathway downstream of the Damage Associated Molecular Pattern (DAMP)-sensing Toll-Like Receptor 2 (TLR2; left panel). Flow cytometry-based quantification of GFP-positive cells at the end of NSC reprogramming (day 15), in the presence of TLR2 inhibitor MMG-11, vehicle control (DMSO) or no treatment (right panel). C) Colony count data for quantification of reprogramming of human fibroblast cells at the end of reprogramming (day 40) after treatment with STING inhibitor H-151 (left panel), TLR2 inhibitor MMG-11 (right panel) or vehicle control (DMSO).

NSO4G neural stem cells = experiment: Yamanaka factor-mediated reprogramming of NSO4G neural stem cells to iPSCs, flow cytometry of OCT4-GFP positive cells; format: cell-based, mouse; conditions: NSC reprogramming culture, end of reprogramming (day 15)
From the text: FIG. 1: Schematic of method of reprogramming of mouse neural stem cells into induced pluripotent stem (iPS) cells. The mouse neural stem cell (NSC) line NSO4G harbours the GFP transgene under the control of Oct4 regulatory elements. […] Upon reprogramming, iPSCs grow in colonies and express GFP, allowing their visualisation and isolation from the remaining, non-reprogrammed cells.
as §1, with “The inhibitors were administered throughout the course of reprogramming.” left out
To investigate the timing of PADI4 expression during reprogramming, the method of reprogramming neural stem cells (NSCs) to iPSCs described in Theunissen et al. (2011) Current Biology, 21(1): 65-71 (doi: https://doi.org/10.1016/j.cub.2010.11.074) was used (FIG. 1). […] At various reprogramming timepoints, the reprogramming cells were harvested and the levels of mRNA encoding PADI4 and NANOG were quantified by qPCR (FIG. 2A) and protein levels (FIG. 2B). […]
Medium was conditioned by culture on NSC reprogramming cultures (FIG. 5A, “Conditioned medium”, bottom panel) or by incubated in empty plates lacking cells under the same conditions (FIG. 5A, “Control medium”, top panel) and added to new reprogramming (receiving) cultures after every 24 h. Reprogramming efficiency of the receiving cultures was assessed by flow cytometry based GFP quantification at the end of the reprogramming assay (day 15). […]

[1] = tested on: citrullinated histone H3 (H3Cit), product of PADI4 activity; experiment: Western blot for citrullinated histone H3 in conditioned medium of NSC reprogramming cultures; format: cell-based, mouse; conditions: conditioned medium from reprogramming cultures, similar total histone H3
From the text: FIG. 7: Citrullinated histones are found in culture medium conditioned by reprogramming cultures. Immunoblot analysis for total histone H3 (top) and two different citrullination marks on histone H3 (middle and bottom) on conditioned medium of NSC reprogramming cells cultured in the presence or absence or the PADI4 inhibitor CI-amidine. Data from two independent experiments are shown. Citrullinated histone H3 is readily detected in the conditioned medium and inhibited by CI-amidine.
Based on this finding, the conditioned medium of Example 4 was analysed for the presence of H3Cit by Western blot (FIG. 7). Citrullinated histone H3 (H3Cit) can be readily detected in the conditioned medium from reprogramming cultures (FIG. 7, middle and lower panels labelled “H3CitR2” and H3CitR8”, lanes labelled “-CI-am”), and this is reduced in conditioned medium from reprogramming cultures in which the PADI4 inhibitor CI-amidine has been added (FIG. 7, middle and lower panels labelled “H3CitR2” and H3CitR8”, lanes labelled “+CI-am”), despite similar levels of total histone H3 being present (FIG. 7, top panel labelled “H3”).

Row | Compound | number of colonies (successfully reprogrammed cells) (human fibroblasts) | proportion of OCT4-GFP positive cells (reprogramming cells) at the end of reprogramming (NSO4G neural stem cells) | citrullinated histone H3 (H3CitR2, H3CitR8) detected in conditioned medium [1]
1 | COc1cc(C(=O)N2CC[C@@H](O)[C@@H](N)C2)cc2nc(-c3cc4ccccc4n3CC3CC3)n(C)c12 [GSK484] | significantly reduced | – | –
2 | CCc1ccc(NC(=O)Nc2c[nH]c3ccccc23)cc1 [H-151] | significantly reduced number of colonies | significantly reduced | –
3 | CCOC(=O)c1ccc(CC(=O)c2ccc(O)c(O)c2O)o1 [MMG-11] | significantly reduced number of colonies | significantly reduced | –
4 | NC(=O)[C@H](CCCN=C(N)CCl)NC(=O)c1ccccc1 [CI-amidine] | significantly reduced | The same result is achieved | reduced

Reference: US20260250639A1, “REPROGRAMMING METHOD” (Babraham Institute, priority 2022, published 2026)
